Literature values as cited in patent publication US20130226549A1, “STRUCTURE-BASED FRAGMENT HOPPING FOR LEAD OPTIMIZATION AND IMPROVEMENT IN SYNTHETIC ACCESSIBILITY” (priority 2012, published 2013).
Read-outs that look alike come from different tables or passages of the source.

Biological target: T1, human 5-LOX (Homo sapiens, UniProt P09917)
T1 sequence (P09917 1-674): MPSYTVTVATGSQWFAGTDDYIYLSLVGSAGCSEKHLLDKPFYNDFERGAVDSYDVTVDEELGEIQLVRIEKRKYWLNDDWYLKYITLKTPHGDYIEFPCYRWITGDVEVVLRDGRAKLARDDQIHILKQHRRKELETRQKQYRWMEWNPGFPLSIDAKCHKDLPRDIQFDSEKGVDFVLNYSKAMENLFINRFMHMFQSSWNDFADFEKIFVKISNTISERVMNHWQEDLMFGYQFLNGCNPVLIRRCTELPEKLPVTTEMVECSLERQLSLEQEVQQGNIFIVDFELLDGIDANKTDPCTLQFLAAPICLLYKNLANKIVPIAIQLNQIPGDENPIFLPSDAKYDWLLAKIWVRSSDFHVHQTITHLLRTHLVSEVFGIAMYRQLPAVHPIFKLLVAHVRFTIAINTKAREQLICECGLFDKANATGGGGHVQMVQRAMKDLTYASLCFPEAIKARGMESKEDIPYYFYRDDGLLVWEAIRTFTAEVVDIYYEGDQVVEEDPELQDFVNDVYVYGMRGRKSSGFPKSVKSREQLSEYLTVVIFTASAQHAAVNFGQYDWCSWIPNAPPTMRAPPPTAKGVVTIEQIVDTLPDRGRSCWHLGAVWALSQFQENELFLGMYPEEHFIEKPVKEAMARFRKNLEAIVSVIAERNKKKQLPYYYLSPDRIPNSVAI
Settings: from the literature

[1] = 5-LOX, LeadOp+R example, read-out: Inhibition IC50

| IC50 [1] | IC50 (human 5-LOX, LeadOp example, read-out: IC50) | SMILES |
| --- | --- | --- |
| 64 ± 3 nM | – | O=c1cc(-c2ccc(F)cc2)c2ccc(CCc3ncc(C(O)(C(F)(F)F)C(F)(F)F)s3)cc2o1 [rB3] |
| 7 ± 2 nM | – | CCC(O)(c1cnc(Sc2ccc3c(-c4ccc(F)cc4)cc(=O)oc3c2)s1)C(F)(F)F (stereo not shown) [rB1] |
| – | 64 nM | O=c1cc(-c2ccc(F)cc2)c2ccc(CCc3ncc(C(O)(C(F)(F)F)C(F)(F)F)s3)cc2o1 [compound H] |

| SMILES | IC50 [1] | IC50 (human 5-LOX, LeadOp example, read-out: IC50) |
| --- | --- | --- |
| CN(Cc1ccc2c(-c3ccc(F)cc3)cc(=O)oc2c1)c1ncc(C(O)(C(F)(F)F)C(F)(F)F)s1 [rB, reference compound] | 145 nM | – |
